Test results: publication PMC6320941, “Synthesis and Evaluation of 3-Substituted-4-(quinoxalin-6-yl) Pyrazoles as TGF-β Type I Receptor Kinase Inhibitors” (Molecules, 2018)

Experiments:
[1] = test system: ALK5; parameters: method as in PMID 16271073; details: cited from earlier work
[2] = target: T1, ALK5 (Homo sapiens, UniProt P36897); assay: Radiometric 33PanQinase ALK5 kinase assay (ProQinase), casein substrate; format: biochemical; details: for remaining activity at 10 µM: compound at 10 μM, in duplicate, read-out: Residual Activity (%) ALK5; for Selectivity Index: IC50 of p38α/IC50 of ALK5; for ALK5 inhibitory activity in words: at up to 5.0 μM for 18a–d, 'at up to 2.26 μM' for pyrimidin-4-yl compounds
T1 sequence (P36897 205-495 limits assumed): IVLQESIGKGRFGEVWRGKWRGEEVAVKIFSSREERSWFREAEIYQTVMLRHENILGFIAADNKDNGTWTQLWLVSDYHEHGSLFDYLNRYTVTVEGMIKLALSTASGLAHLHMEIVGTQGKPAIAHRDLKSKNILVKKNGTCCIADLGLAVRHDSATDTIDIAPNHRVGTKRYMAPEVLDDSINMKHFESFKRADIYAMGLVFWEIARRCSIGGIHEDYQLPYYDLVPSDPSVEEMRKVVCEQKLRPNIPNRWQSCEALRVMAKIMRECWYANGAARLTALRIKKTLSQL
Description: To investigate whether compounds 14a–d, 15a–d, 16a–d, 17a–d, 18a–d, and 19a–d would inhibit ALK5, a kinase assay for preliminary screening was performed using the purified human ALK5 kinase domain produced in Sf9 insect cells and compounds at 10 μM.
(§1) All kinase experiments were completed by the ProQinase (Freiburg, Germany). All protein kinases were expressed in Sf9 insect cells or in E. coli as recombinant GST-fusion proteins or His-tagged proteins, either as full-length or enzymatically active fragments. All kinases were obtained from human cDNAs and purified by either GSH-affinity chromatography or immobilized metal. The purity of the protein kinases was examined by SDS-PAGE/Coomassie staining. The identity was checked by mass spectroscopy.
(§2) A radiometric protein kinase assay (^33PanQinase® activity assay) was used for measuring the kinase activity of the two protein kinases. All kinase assays were performed in 96-well FlashPlates^TM from PerkinElmer (Boston, MA, USA) in 50 μL reaction volumes. The reaction cocktail was pipetted in four steps in the following order: 20 μL of assay buffer (standard buffer), 5 μL of ATP solution (in H2O), 5 μL of test compound (in 10% DMSO), 20 μL enzyme/substrate mix.
(§3) The assay for all protein kinases contained 70 mM HEPES-NaOH pH 7.5, 3 mM MgCl2, 3 mM MnCl2, 3 μM Na-orthovanadate, 1.2 mM DTT, 50 μg/mL PEG20000, ATP, [γ-^33P]-ATP, protein kinase, and substrate.
(§4) The reaction cocktail was incubated at 30 °C for 60 min. The reaction was halted with 50 μL of 2% (v/v) H3PO4, plates were aspirated and washed two times with 200 μL 0.9% (w/v) NaCl. Incorporation of ^33Pi was established with a microplate scintillation counter (PerkinElmer, Boston, MA, USA). All assays were performed with a BeckmanCoulter/SAGIAN™ Core System.

[3] = target: p38α MAP kinase (Homo sapiens, UniProt Q16539); assay: Radiometric 33PanQinase p38α MAP kinase assay (ProQinase), ATF2 substrate; format: biochemical; details: for remaining activity at 10 µM: compound at 10 μM, in duplicate, read-out: Residual Activity (%) p38α
Chain of p38α MAP kinase (Q16539 whole entry, the tested form may be a part): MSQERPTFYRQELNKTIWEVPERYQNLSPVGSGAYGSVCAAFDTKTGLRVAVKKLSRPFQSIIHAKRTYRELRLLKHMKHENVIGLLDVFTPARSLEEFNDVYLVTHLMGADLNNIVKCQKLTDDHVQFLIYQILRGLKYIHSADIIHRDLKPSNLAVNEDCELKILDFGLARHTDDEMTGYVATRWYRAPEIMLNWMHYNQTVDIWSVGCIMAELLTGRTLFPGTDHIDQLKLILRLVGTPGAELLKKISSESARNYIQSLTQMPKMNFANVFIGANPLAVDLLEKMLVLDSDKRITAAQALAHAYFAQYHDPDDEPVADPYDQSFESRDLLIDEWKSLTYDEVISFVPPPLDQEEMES
Text: We selected p38α MAP kinase to survey the selectivity profile of this series of compounds because its kinase domain is among the most homologous to that of ALK5 [27].
as §1, §2, §3, §4

SMILES	IC50 [1] [µM]	melting point [°C]	remaining activity at 10 µM [2] [%]	remaining activity at 10 µM [3] [%]	IC50 [2] [µM]	Selectivity Index [2]	IC50 [3] [µM]	ALK5 inhibitory activity in words [2]
Cc1cccc(-c2nn(C(=S)Nc3ccccc3)cc2-c2ccnc3ccccc23)n1 [Compound 6, A-83-01]	0.012	–	–	–	–	–	–	–
Cc1csc(-c2nn(CC(=O)Nc3cccc(C#N)c3)cc2-c2ccc3nccnc3c2)n1 [Compound 16d, N-(3-Cyanophenyl)-2-(3-(4-methylthiazol-2-yl)-4-(quinoxalin-6-yl)-1H-pyrazol-1-yl)acetamide]	–	222.3 to 223	3	108	–	–	–	–
CN(C)c1cccc(-c2nn(CC(=S)Nc3ccccc3)cc2-c2ccc3nccnc3c2)n1 [Compound 18a, 2-(3-(6-(Dimethylamino)pyridin-2-yl)-4-(quinoxalin-6-yl)-1H-pyrazol-1-yl)-N-phenylethanethioamide]	–	182 to 184	29	119	5.75	>2	> 10	–
CN(C)c1cccc(-c2nn(CC(=S)Nc3ccccc3F)cc2-c2ccc3nccnc3c2)n1 [Compound 18b, 2-(3-(6-(Dimethylamino)pyridin-2-yl)-4-(quinoxalin-6-yl)-1H-pyrazol-1-yl)-N-(2-fluorophenyl)ethanethioamide]	–	88.3 to 91.2	70	125	> 10	–	> 10	–
CN(C)c1cccc(-c2nn(CC(=S)Nc3cccc(F)c3)cc2-c2ccc3nccnc3c2)n1 [Compound 18c, 2-(3-(6-(Dimethylamino)pyridin-2-yl)-4-(quinoxalin-6-yl)-1H-pyrazol-1-yl)-N-(3-fluorophenyl)ethanethioamide]	–	68.5 to 70.2	29	165	5	>2	> 10	–
CN(C)c1cccc(-c2nn(CC(=S)Nc3cccc(C#N)c3)cc2-c2ccc3nccnc3c2)n1 [Compound 18d, N-(3-Cyanophenyl)-2-(3-(6-(dimethylamino)pyridin-2-yl)-4-(quinoxalin-6-yl)-1H-pyrazol-1-yl)ethanethioamide]	–	108.5 to 110	54	119	> 10	–	> 10	–
O=C(Cn1cc(-c2ccc3nccnc3c2)c(-c2ccncn2)n1)Nc1ccccc1 [Compound 25a, N-Phenyl-2-(3-(pyrimidin-4-yl)-4-(quinoxalin-6-yl)-1H-pyrazol-1-yl)acetamide]	–	170.3 to 172.5	–	–	5.03	>2	> 10	no significant ALK5 inhibition activity
O=C(Cn1cc(-c2ccc3nccnc3c2)c(-c2ccncn2)n1)Nc1ccccc1F [Compound 25b, N-(2-Fluorophenyl)-2-(3-(pyrimidin-4-yl)-4-(quinoxalin-6-yl)-1H-pyrazol-1-yl)acetamide]	–	192.3 to 194.5	–	–	3.66	>3	> 10	no significant ALK5 inhibition activity
N#Cc1cccc(NC(=O)Cn2cc(-c3ccc4nccnc4c3)c(-c3ccncn3)n2)c1 [Compound 25d, N-(3-Cyanophenyl)-2-(3-(pyrimidin-4-yl)-4-(quinoxalin-6-yl)-1H-pyrazol-1-yl)acetamide]	–	178.3 to 180.5	–	–	4.12	>2	> 10	no significant ALK5 inhibition activity
